Read-outs that look alike come from different tables or passages of the source.
Columns and labels:
spontaneous lung tumor = test: Bioscan imaging of spontaneous lung tumor; format: in vivo, Apc^Min mouse; conditions: 4 days post injection
Source text: FIG. 13. Bioscan image (A) obtained 4 days post ^125I-NM404 injection into an Apc^Min mouse.
(§1) NM404 has now been evaluated in 27 animal tumor models, including several lung, and it is clear that once the agent enters tumor cells, it reaches a metabolic dead end and becomes trapped. […] NM404 is also retained in spontaneous murine lung tumors (FIG. 13). Using ^125I-labeled NM404, the inventors have been able to image mammary and prostate tumors in mice in excess of 60 days. […] Imaging and tissue distribution studies performed in mouse models aimed at determining the uptake characteristics in a wide variety of tumor models are summarized in Table 2.

[1] = system: human RL-251 adrenal tumor xenograft; test: Time course in human RL-251 adrenal cancer xenograft; parameters: species or system SCID mouse; conditions: mouse, in vivo
Source text: as §1

[2] = system: non-small cell lung cancer; test: Planar gamma-camera scintigraphy with 131I-NM-404 in NSCLC patients; conditions: time points examined
Experimental: The preparation dispensed by the Nuclear Pharmacy will be certified as sterile and pyrogen-free. The subject will be monitored for adverse reactions during and after the infusion. Vital signs will be checked immediately after the infusion, and at 60 minute intervals up to four hours post-injection. They will be observed for adverse events throughout this time. […] Vital signs will be monitored at these times. Any adverse reactions experienced by the subjects will be recorded.

lymph node metastases = test: Scintigraphy in metastatic prostate tumor model; conditions: in vivo
Source text: A variety of tumors including mammary, prostate, squamous cell carcinoma, ovarian, colorectal, and melanoma were successfully visualized by scintigraphy with NM324.
This agent has also been evaluated preclinically in a metastatic prostate tumor model in which lymph node metastases were clearly delineated by scintigraphy following intravenous administration of NM404 but, pertinently, the tracer was not retained by uninvolved lymph nodes. Selectivity of NM404 for malignant cells is particularly relevant in prostate cancer as conventional tumor markers such as PSA may also be elevated in a variety of benign disease states including prostatitis and benign prostatic hypertrophy. Furthermore, selective uptake and prolonged retention by tumor cells supports a role for NM404 as a tumor-selective diagnostic and therapeutic agent.

[3] = system: Walker-256 carcinosarcoma; test: Tissue distribution of radioactivity in rats bearing Walker-256 carcinosarcoma; format: in vivo, rat
[4] = format: in vivo, human
Prostate PC-3 = test: Tumor models examined with NM404 (Table 2); format: in vivo, SCID Mouse; conditions: Adenocarcinoma
Source text: as §1
(§2) Although tumor retention can be explained by a lack of metabolic phospholipase enzymes in the tumor cell membranes, the exact mechanism of tumor cell uptake is unknown. […] The inventors are currently evaluating the selectivity of NM404 in a unique mouse tumor model developed at Wisconsin, wherein both preneoplastic hyperplasias and malignant adenocarcinomas form spontaneously in the mammary gland. […] If this initial observation is validated, then via genomic and or proteomic analysis the inventors may be able to identify a key genetic difference between malignant tumors and their non malignant predecessor cells. This could identify a completely new molecular therapeutic target that may be universal for all types of cancer.

Adrenal RL-251 = test: Tumor models examined with NM404 (Table 2); format: in vivo, SCID Mouse; conditions: Adenocarcinoma
Source text: as §1, §2

Adrenal H-295 = test: Tumor models examined with NM404 (Table 2); format: in vivo, SCID Mouse; conditions: Adenocarcinoma
Source text: as §1, §2

Lung A-549 (NSCC) = test: Tumor models examined with NM404 (Table 2); format: in vivo, SCID Mouse; conditions: Adenocarcinoma
Source text: as §1, §2

[5] = Acute GLP toxicology, single iv dose, 14 days observation, rats; format: in vivo; conditions: female rats
[6] = Blood plasma kinetics in rats; format: in vivo; conditions: rat
Lung NCI H-69 (Oat Cell) = test: Tumor models examined with NM404 (Table 2); format: in vivo, Nude Mouse; conditions: Small cell carcinoma
Source text: as §1, §2

[7] = MIRD extrapolation of rat tissue distribution data to permissible human dose; parameters: species or system human (from rat data)
Source text: Accordingly the inventors have conducted the preliminary pharmacokinetic studies in human lung cancer patients at 1 mCi. Similar extrapolative calculation of the dosimetry for ^124I-NM404 afforded a similar 2 mCi dose level again based on projected dosimetry to the adrenals and bladder wall. Preliminary human data (5 patients), however, indicate very little uptake and retention of the agent into any abdominal organ (including the bladder and adrenals) with the exception of the liver which returns to background levels within 11 days.
Dosing of radioiodinated ^124I NM404 will be based on MIRD extrapolation of the iodine-131 dosimetry data derived from this ongoing study. The ^131I-NM404 dose is currently calculated as follows: Animal biodistribution data is used to determine the percentage of injected dose/organ at varying time points. These animal data are extrapolated to man by means of MIRD formalism (MIRDOSE PC v3.1) using standard conversion factors for differences in organ mass and anatomy between rat and standard man, providing predicted human organ doses; Based on these predicted doses, the permissible mCi dose to be injected into humans is determined using the maximal doses legally permitted by RDRC regulations for specific human tissue as defined in the Federal Register (21CFR Part 361.1) e.g. whole body, blood, blood forming tissues, eye lens, gonads—3 rem/dose; any other tissue—5 rem/dose. This approach was previously used to bring both NM324 and NM404 to clinical use, resulting in a calculated dose of 1 mCi.

Mammary SCC = test: Tumor models examined with NM404 (Table 2); format: in vivo, Apc/^min+ mouse; conditions: Squamous cell carcinoma
Source text: as §1, §2

Mammary Adenocarcinoma = test: Tumor models examined with NM404 (Table 2); format: in vivo, Apc/^min+ mouse
Source text: as §1, §2

Melanoma B16 = test: Tumor models examined with NM404 (Table 2); format: in vivo, Mouse xenograft; conditions: Adenocarcinoma
Source text: as §1, §2

Liver CT-26 = test: Tumor models examined with NM404 (Table 2); format: in vivo, Mouse xenograft; conditions: Colorectal adenocarcinoma
Source text: as §1, §2

LuCaP prostate = test: Tumor models examined with NM404 (Table 2); format: in vivo, Mouse xenograft; conditions: Adenocarcinoma
Source text: as §1, §2

[8] = system: A549 lung, PC-3 prostate, c-myc pancreatic tumors; test: microPET imaging in lung, prostate and pancreatic mouse tumor models; format: in vivo
Source text: Human pharmacokinetic studies have confirmed this finding as only 4% of the agent is cleared renally within 4 days of iv injection (majority is excreted via GI route).

Walker-256 = test: Tumor models examined with NM404 (Table 2); format: in vivo, Rat; conditions: Carcinosarcoma
Source text: as §1, §2

Prostate MatLyLu = test: Tumor models examined with NM404 (Table 2); format: in vivo, Rat; conditions: Adenocarcinoma
Source text: as §1, §2

Mammary MCF-7 = test: Tumor models examined with NM404 (Table 2); format: in vivo, Rat; conditions: Adenocarcinoma
Source text: as §1, §2

Compound: C[N+](C)(C)CCOP(=O)([O-])OCCCCCCCCCCCCCCCCCCc1ccc([125I])cc1 [Compound I-125-NM404]
- uptake into spontaneous lung tumor (spontaneous lung tumor): intense uptake of NM404 into the tumor
- tumor retention [1]: retention is evident even after 20 days

Compound: C[N+](C)(C)CCOP(=O)([O-])OCCCCCCCCCCCCCCCCCCc1ccc(I)cc1 [NM-404, 18-(4-iodophenyl)-octadecylphosphocholine]
- urinary bladder radioactivity [2]: lack of urinary bladder radioactivity
- localization in lymph node metastases (lymph node metastases): clearly delineated by scintigraphy in a metastatic prostate tumor model without retention in uninvolved lymph nodes
- radioactivity in the tumor (peak) ([3]; 48 hours after administration): 1.14±0.01 % of ID/g
- blood levels ([3]; 120 hours): 0.6±0.1 % of ID/g
- time of peak tumor radioactivity ([3]; after administration): 48 h
- half-life ([4]; human, plasma, intravenous, 0.3 μg/kg, average, read-out: plasma elimination half life time (converted)): 113 h
- agent cleared renally ([4]; within 4 days of iv injection): 4%
- NM404 Tumor Localization (Prostate PC-3): Yes (Localization defined as >5% injected dose per gram tumor basis based on tissue distribution data)
- NM404 Tumor Localization (Adrenal RL-251): Yes (Localization defined as >5% injected dose per gram tumor basis based on tissue distribution data)
- NM404 Tumor Localization (Adrenal H-295): Yes (Localization defined as >5% injected dose per gram tumor basis based on tissue distribution data)
- NM404 Tumor Localization (Lung A-549 (NSCC)): Yes (Localization defined as >5% injected dose per gram tumor basis based on tissue distribution data)
- adverse effects [5]: no adverse effects attributable to the test article were noted
- toxic effects ([5]; 0.04 mg/kg (Study 31)): no significant toxic effects were noted
- half-life ([6]; read-out: distribution phase half life (converted)): 4.86 h
- half-life ([6]; read-out: elimination half life time in plasma (converted)): ~209 h
- NM404 Tumor Localization (Lung NCI H-69 (Oat Cell)): Yes (Localization defined as >5% injected dose per gram tumor basis based on tissue distribution data)
- calculated dose for clinical use [7]: 1 mCi
- 5 rad dose to adrenals ([7]; new animal data): 2.2 mCi
- 5 rad testes dose ([7]; new animal data): 2.1 mCi
- NM404 Tumor Localization (Mammary SCC): Yes (Localization defined as >5% injected dose per gram tumor basis based on tissue distribution data)
- NM404 Tumor Localization (Mammary Adenocarcinoma): Yes (Localization defined as >5% injected dose per gram tumor basis based on tissue distribution data)
- NM404 Tumor Localization (Melanoma B16): Yes (Localization defined as >5% injected dose per gram tumor basis based on tissue distribution data)
- NM404 Tumor Localization (Liver CT-26): Yes (Localization defined as >5% injected dose per gram tumor basis based on tissue distribution data)
- NM404 Tumor Localization (LuCaP prostate): Yes (Localization defined as >5% injected dose per gram tumor basis based on tissue distribution data)
- time to tumor uptake ([8]; after injection): ≤ 6 h
- tumor avidity ([8]; mouse, in vivo): significant tumor avidity regardless of location in the body
- NM404 Tumor Localization (Walker-256): Yes (Localization defined as >5% injected dose per gram tumor basis based on tissue distribution data)
- NM404 Tumor Localization (Prostate MatLyLu): Yes (Localization defined as >5% injected dose per gram tumor basis based on tissue distribution data)
- NM404 Tumor Localization (Mammary MCF-7): Yes (Localization defined as >5% injected dose per gram tumor basis based on tissue distribution data)
